Assay results reported in patent US9717820B2, “Procoagulant peptides and their derivatives and uses therefor” (Ethicon, Inc., priority 2011, dated 2017).
No end group written: not given here. mPEG 5000 = methoxy-PEG, average 5000 Da, coupled via mPEG-NHS

How the values were obtained:
[1] = tested on: Heparinized Porcine spleen biopsy punch model; assay: Heparinized porcine spleen biopsy punch model, time to hemostasis; assay type: in vivo; conditions: mixture with Surgiflo; for hemostatic effect in heparinized blood: 2 mL of 5 mM in saline (thrombin: EVITHROM), ACT above 300 seconds
Source text: The model was Heparinized Porcine spleen biopsy punch model: 6 mm wide×3 mm deep, tamponade time: 30 sec; observation time: 30 sec; activated clotting time (ACT) was maintained above 300 seconds by infusing additional 2000 IU heparin solution if needed. 9975 IU of heparin solution was initially applied to a 39.1 Kg porcine.

[2] = tested on: porcine spleen biopsy punch model; assay: porcine spleen biopsy punch model, time to hemostasis; assay type: in vivo; conditions: for hemostatic efficacy (time to hemostasis): pegylated (PEG2000) 8 amino acid peptides in mixture with Surgiflo, FIG. 5; for hemostatic performance vs Surgiflo with normal saline: ORC powder scaffold, FIG. 5, N=4; for time to hemostasis vs Surgiflo with saline and with PEG2000 (5 mM): FIG. 3, N=3; for hemostatic efficacy vs Surgiflo with thrombin: 0.05-5 mM; for time to hemostasis vs thrombin: FIG. 2, N=3
Experimental: The data was collected using in vivo porcine spleen biopsy punch model [6 mm wide×3 mm deep], initial tamponade time: 30 s; observation time: 30 s; N=3.
In vivo hemostatic activity study was performed using the porcine spleen biopsy punch model, with the punched wound opening 6 mm wide×3 mm deep made on the spleen and the test article applied to a freshly created wound site followed by an occlusive digital pressure (tamponade). Pressure was initially applied for 30 second and was timed using an electronic timer. Following the 30 seconds tamponade, digital pressure was discontinued; the gauze pad on the article was immediately removed. A 30-second hemostasis evaluation period was performed. If free flow bleeding was not observed within 30 seconds, the time to hemostasis was noted, in a minutes seconds format, and testing was concluded for that article. If free flow bleeding was observed, pressure and gauze were reapplied for additional 30 seconds tamponade and observation periods until hemostasis was achieved or until the testing period reached ten minutes. Hemostasis was determined by the cessation of free flow bleeding in less than ten minutes. Gauze pad was used as a negative control.
The data was collected using porcine spleen biopsy punch model [6 mm wide×3 mm deep], initial tamponade time: 30 s; observation time: 30 s; N=3.
The data was collected using porcine spleen biopsy punch model [6 mm wide×3 mm […]], initial tamponade time: 30 s; observation time: 30 s; N=3.
The inventors have tested the following ORC-based compositions: • mixtures of ORC with pegylated SEQ ID NO: 1 at 5 mM concentration (designated on the chart as ORC/PEG2000-RK-8) • mixtures of ORC with SEQ ID NO: 1 at 5 mM concentration (designated on the chart as ORC/RK-8) • mixtures of ORC with normal saline The data was collected using porcine spleen biopsy punch model [6 mm wide×3 mm […]], initial tamponade time: 30 s; observation time: 30 s; N=4.
The data was collected using porcine spleen biopsy punch model [6 mm wide×3 mm deep], initial tamponade time: 30 s; observation time: 30 s.

washed human platelets = washed human platelets from different donors; cited from earlier work
[3] = tested on: porcine blood containing sodium citrate; assay: bench top test: solution added to citrated porcine blood in glass vials; conditions: 100 μL of 0.5 mM solution added to 100 μL citrated porcine blood; for precipitation of blood: after 2 hrs
Experimental: In a bench top experiment, pegylated SEQ ID NO: 1 in normal saline solution, non-pegylated SEQ ID NO: 1 in normal saline solution, and control solution of normal saline were tested to evaluate interaction with blood. Samples were prepared by adding 100 μL of pegylated SEQ ID NO: 1 in normal saline solution (0.5 mM), SEQ ID NO: 1 in normal saline solution (0.5 mM), and normal saline to separate glass vials containing 100 μL of porcine blood containing sodium citrate (0.105M). […] Thus the pegylated SEQ ID NO: 1 and non-pegylated SEQ ID NO: 1 was shown as promoting rapid blood coagulation.

fresh porcine blood = assay: bench top test: treated Monocryl pad with fresh porcine blood; conditions: 100 μL of 0.5 mM on 0.025 g Monocryl pad, 150 μL fresh porcine blood, 2 minutes, room temperature
Experimental: In a bench top experiment, a synthetic porous pad was treated with pegylated SEQ ID NO: 1 in saline solution or with control solution of saline to evaluate interaction with blood. Samples were prepared by adding 100 μL of pegylated SEQ ID NO: 1 in normal saline solution (0.5 mM) or 200 μL of normal saline solution to 0.025 g Monocryl (poliglecaprone 25) pad. The impregnated Monocryl* (poliglecaprone 25) pads were then air-dried for 2 hrs following by an 1-hr vacuum drying process.
150 μL of fresh porcine blood was then added to each pad separately, and allowed it sit at room temperature for 2 minutes. The pads were then transferred to a Petri dish containing 20 mL of saline solution, observing non-coagulated blood diffusing out from the pads. […] Thus the pegylated SEQ ID NO: 1 was shown as promoting rapid blood coagulation.

[4] = tested on: clopidogrel and acetylsalicylic acid treated porcine spleen biopsy punch model; assay: clopidogrel and acetylsalicylic acid treated porcine spleen biopsy punch model (platelet inactivated); assay type: in vivo; conditions: mixture with Surgiflo, 0.5 mM PEG2000-RK8 in saline, FIG. 8
Experimental: The data was collected using a clopidogrel and acetylsalicylic acid treated porcine spleen biopsy punch model (6 mm wide×3 mm deep, tamponade time: 30 sec; observation time: 30 sec; the following oral dosages were applied to a 4-month-old female porcine (weight: 66.1 Kg): • 2 days prior to the lab: 300 mg of Plavix and 325 mg of aspirin. • 1 day prior to the lab: 75 mg of Plavix and 325 mg of aspirin. • The day for the lab: 75 mg of Plavix and 325 mg of aspirin before the surgery.

[5] = mixture with Surgiflo, 5 mM, FIG. 6
[6] = mixture with Surgiflo, FIG. 4, N=3

Substance	hemostatic effect in heparinized blood ([1]; FIG. 7)	hemostatic efficacy (time to hemostasis) ([2]; 5 mM)	hemostatic performance vs Surgiflo with normal saline ([2]; 5 mM)	time to hemostasis vs Surgiflo with saline and with PEG2000 (5 mM) ([2]; mixture with Surgiflo, 5 mM)	effectiveness as hemostatic agent (time to hemostasis) [2, 5]	hemostatic efficacy vs Surgiflo with thrombin [2, 6]	clouding of blood [3]	precipitation of blood [3]	further results
PEG5000-SEQ ID NO: 1: SEQ ID NO: 1 with mPEG 5000 conjugated onto the N-terminus via mPEG-NHS ({mPEG 5000}-RFYVVMWK)	significant hemostatic efficacy								hemostatic efficacy vs thrombin, non-pegylated SEQ ID NO: 1 and other controls ([1]; heparinized blood, 5 mM): superior hemostatic efficacy
SEQ ID NO: 21: PEG2000-conjugated random sequence 8 amino acid peptide KVYRWFMV (PEG2000-KVYRWFMV) [reference compound]		longer time to hemostasis, comparable to SF/saline mixture							
SEQ ID NO: 7: PEG2000-conjugated peptide KYFLLQFR (Lys-Tyr-Phe-Leu-Leu-Gln-Phe-Arg) (PEG2000-KYFLLQFR)		somewhat longer time to hemostasis, comparable to non-pegylated SEQ ID NO: 1							
thrombin	failed as hemostat in heparinized blood								
Arg-Phe-Tyr-Val-Val-Met-Trp-Lys (RFYVVMWK) [SEQ ID NO: 1]	failed as hemostat in heparinized blood		not suitable	much faster time to hemostasis	performed as well as thrombin	hemostatic efficacy comparable to mixtures of Surgiflo™ with thrombin	instantly observed	complete precipitation of blood	concentrations that induce activation and aggregation of platelets (washed human platelets): 5 to 25 mM
pegylated SEQ ID NO: 1: SEQ ID NO: 1 with mPEG (average 2000 Da) conjugated onto the N-terminus via mPEG-NHS ({mPEG 2000 Da}-RFYVVMWK)	some hemostatic effect		not suitable	much faster time to hemostasis	performed as well as thrombin	better or similar hemostatic efficacy	instantly observed	complete precipitation of blood	coagulated blood trapped in treated pad (fresh porcine blood): significant amount of coagulated blood; hemostatic testing ([2]; Pluronic acid F127 scaffold, 5 mM, FIG. 6): failed in hemostatic testing; time to hemostasis vs thrombin ([2]; mixture with Surgiflo, 0.05 mM to 5 mM): comparable to thrombin; time to hemostasis ([2]; mixture with Surgiflo, 0.05 mM, FIG. 4, N=3): particularly fast time to hemostasis; time to hemostasis vs thrombin ([2]; mixture with Surgiflo, 0.1 mM): possibly better time to hemostasis than Thrombin; hemostatic efficacy vs SEQ ID NO: 1 and Thrombin ([2]; mixtures with Surgiflo, FIG. 4, further analysis): better hemostatic efficacy than SEQ ID NO: 1 and Thrombin; hemostatic efficacy vs Surgiflo/Thrombin [4]: working as well as Surgiflo/Thrombin; time to hemostasis ([1]; 2 mL of 5 mM in saline, heparinized blood, FIG. 7): 6.8 min
